Measurements taken from ChEMBL document CHEMBL3217632, “Water soluble flavonol prodrugs that protect against ischaemia-reperfusion injury in rat hindlimb and sheep heart” (Medchemcomm, 2011).
Blank lines part the entries; values can stand above or below the molecule they belong to. Active and inactive are the calls of the source. No cut-off for these calls is given here.

Columns and labels:
[1] = Solubility of the compound in aqueous sodium carbonate; type: physicochemical
Thoracic aorta [2] = experiment: Vasorelaxant activity in Sprague-Dawley rat thoracic aorta with intact endothelium assessed as Ca2+-induced contraction after 20 mins in absence of butyrylcholinesterase; type: functional, tissue-based
Thoracic aorta [3] = experiment: Vasorelaxant activity in Sprague-Dawley rat thoracic aorta with intact endothelium assessed as inhibition of Ca2+-induced contraction pretreated with butyrylcholinesterase for 1 hr; type: functional, tissue-based; conditions: for IC50: Rattus norvegicus, Sprague-Dawley, Thoracic aorta
Thoracic aorta [4] = experiment: Inhibition of superoxide anion production in Sprague-Dawley rat thoracic aorta with intact endothelium by lucigenin-based chemiluminescence analysis in presence of NADPH and absence of butyrylcholinesterase; type: functional, tissue-based
Thoracic aorta [5] = experiment: Inhibition of superoxide anion production in Sprague-Dawley rat thoracic aorta with intact endothelium pretreated with butyrylcholinesterase for 1 hr by lucigenin-based chemiluminescence analysis in presence of NADPH; type: functional
[6] = Aqueous solubility of the compound; type: physicochemical; conditions: water (aqueous)
Thoracic aorta [7] = experiment: Vasorelaxant activity in Sprague-Dawley rat thoracic aorta with intact endothelium assessed as inhibition of Ca2+-induced contraction after 20 mins; type: functional, tissue-based; conditions: for IC50: Rattus norvegicus, Sprague-Dawley, Thoracic aorta, 20 min
Thoracic aorta [8] = experiment: Inhibition of superoxide anion production in Sprague-Dawley rat thoracic aorta with intact endothelium by lucigenin-based chemiluminescence analysis in presence of NADPH; type: functional
Ovis aries [9] = experiment: Cardioprotective activity in merino sheep ischemia/reperfusion injury model assessed as infarct size at 5 mg/kg, iv administered as 20 mins infusion at 10 mins prior to reperfusion measured 3 hrs post-reperfusion by triphenyltetrazolium chloride staining (reference value: 80 +/-3%); type: functional
Ovis aries [10] = experiment: Cardioprotective activity in iv dosed merino sheep ischemia/reperfusion injury model assessed as circulating LDH level measured 2 hrs post-reperfusion (reference value: 604 +/-58 U/L); type: functional
Rattus norvegicus [11] = species on record: Rattus norvegicus; experiment: Cardiotoxicity in Sprague-Dawley rat hindquarters ischemia/reperfusion model assessed as change in mean arterial pressure measured following ischemia/reperfusion; type: toxicity, organism-based, Artery; conditions: in vivo
Rattus norvegicus [12] = species on record: Rattus norvegicus; experiment: Cardiotoxicity in Sprague-Dawley rat hindquarters ischemia/reperfusion model assessed as change in heart rate measured following ischemia/reperfusion by tachometer analysis; type: toxicity, organism-based; conditions: in vivo
Plasma = experiment: Prodrug conversion in Sprague-Dawley rat plasma assessed as 3',4'-dihydroxyflavonol formation at 6.6 mg/kg, iv measured within 2 mins of drug administration by LC-MS/MS analysis; type: ADME, organism-based; design: dose 6.6 mg/kg, route intravenous; conditions: in vivo
Rattus norvegicus [13] = experiment: Cardioprotective activity in iv dosed Sprague-Dawley rat hindquarters ischemia/reperfusion model assessed as decrease in circulating LDH level administered as bolus injection 5 mins prior to reperfusion by spectrophotometric analysis; type: functional, organism-based
Ovis aries [14] = experiment: Cardioprotective activity in merino sheep ischemia/reperfusion injury model assessed as decrease in infarct size at 6.6 mg/kg, iv administered as bolus dose at 10 mins prior to reperfusion measured 3 hrs post-reperfusion by triphenyltetrazolium chloride staining; type: functional, organism-based; design: dose 6.6 mg/kg
Ovis aries [15] = experiment: Cardioprotective activity in merino sheep ischemia/reperfusion injury model assessed as circulating LDH level 6.6 mg/kg, iv administered as bolus dose at 10 mins prior to reperfusion measured 3 hrs post-reperfusion by automated analyzer (reference value: 152 +/-50 U/L); type: functional
Thoracic aorta [16] = experiment: Vasorelaxant activity in Sprague-Dawley rat thoracic aorta with intact endothelium assessed as Ca2+-induced contraction after 20 mins in absence of alkaline phosphatase; type: functional, tissue-based
Thoracic aorta [17] = experiment: Vasorelaxant activity in Sprague-Dawley rat thoracic aorta with intact endothelium assessed as inhibition of Ca2+-induced contraction after 20 mins in presence of alkaline phosphatase; type: functional, tissue-based; conditions: for IC50: Rattus norvegicus, Sprague-Dawley, Thoracic aorta, 20 min
Thoracic aorta [18] = experiment: Inhibition of superoxide anion production in Sprague-Dawley rat thoracic aorta with intact endothelium by lucigenin-based chemiluminescence analysis in presence of NADPH and alkaline phosphatase; type: functional

Compound: O=C(O)CCCCC(=O)Oc1c(-c2ccc(O)cc2)oc2ccccc2c1=O
- solubility [1]: > 50 mg/mL
- Activity (Thoracic aorta [2]): inactive
- Rmax (Thoracic aorta [3]): 70%
- IC50 (Thoracic aorta [3]): 35.5 µM
- inhibition (Thoracic aorta [4]): inactive
- Rmax (Thoracic aorta [5]): 30%

Compound: O=c1c(O)c(-c2ccc(O)c(O)c2)oc2ccccc12
- Rmax (Thoracic aorta [7]): 89%
- IC50 (Thoracic aorta [7]): 9.55 µM
- Rmax (Thoracic aorta [8]): 84%
- Activity (Ovis aries [9]): 50%
- Activity (Ovis aries [10]): 405 U/L
- Activity (Rattus norvegicus [11]): Non-toxic
- Activity (Rattus norvegicus [12]): Non-toxic

Compound: O=C(O)CCCCC(=O)Oc1c(-c2ccc(O)c(O)c2)oc2ccccc2c1=O
- solubility [1]: > 50 mg/mL
- Drug metabolism (Plasma): Active
- Activity (Thoracic aorta [2]): inactive
- Rmax (Thoracic aorta [3]): 76%
- IC50 (Thoracic aorta [3]): 33.9 µM
- inhibition (Thoracic aorta [4]): inactive
- Rmax (Thoracic aorta [5]): 70%
- Activity (Rattus norvegicus [13]): Active
- Activity (Ovis aries [14]): Active
- Activity (Ovis aries [15]): 70 U/L
- Activity (Rattus norvegicus [11]): Non-toxic
- Activity (Rattus norvegicus [12]): Non-toxic

Continued, in another order:

- solubility [6]: < 1 mg/mL
- IC50 (Thoracic aorta [7]): 4.27 µM
Compound: O=c1c(O)c(-c2ccccc2)oc2ccccc12 [FLAVONOL]
- Rmax (Thoracic aorta [7]): 19%
- Rmax (Thoracic aorta [8]): 20%

- solubility [6]: > 200 mg/mL
- IC50 (Thoracic aorta [17]): 4.68 µM
Compound: O=c1c(OP(=O)([O-])[O-])c(-c2ccccc2)oc2ccccc12.[Na+].[Na+]
- Activity (Thoracic aorta [16]): inactive
- Rmax (Thoracic aorta [17]): 40%
- Rmax (Thoracic aorta [18]): 36%

- solubility [6]: < 1 mg/mL
- IC50 (Thoracic aorta [7]): 11.7 µM
Compound: O=c1c(O)c(-c2ccc(O)cc2)oc2ccccc12
- Rmax (Thoracic aorta [7]): 70%
- Rmax (Thoracic aorta [8]): 62%

- solubility [6]: > 200 mg/mL
- IC50 (Thoracic aorta [17]): 3.98 µM
Compound: O=c1c(OP(=O)([O-])[O-])c(-c2ccc(O)cc2)oc2ccccc12.[Na+].[Na+]
- Activity (Thoracic aorta [16]): inactive
- Rmax (Thoracic aorta [17]): 63%
- Rmax (Thoracic aorta [18]): 27%
- Activity (Rattus norvegicus [13]): Active
- Activity (Ovis aries [14]): Active
- Activity (Rattus norvegicus [11]): Non-toxic
- Activity (Rattus norvegicus [12]): Non-toxic
